Test results reported in paper PMC7749516, “Safety and nonclinical and clinical pharmacokinetics of PC945, a novel inhaled triazole antifungal agent” (Pharmacology Research & Perspectives, 2020).

Assay: Toxicokinetics/toxicity in rats, daily 2-hour inhalation for 14 days (plasma)
Settings: for Ro (accumulation ratio): AUC0‐24h (Day14)/AUC0‐24h (Day 1)
[1] = female rats, Day 14 of inhaled 2.0 mg/kg/day
[2] = female rats, Day 14 of inhaled 7.1 mg/kg/day
[3] = female rats, Day 14 of inhaled 16.6 mg/kg/day
[4] = female rats, single inhaled dose 2.0 mg/kg (Day 1)
[5] = female rats, single inhaled dose 7.1 mg/kg (Day 1)
[6] = female rats, single inhaled dose 16.6 mg/kg (Day 1)
[7] = male rats, Day 14 of inhaled 2.0 mg/kg/day
[8] = male rats, Day 14 of inhaled 7.1 mg/kg/day
[9] = male rats, Day 14 of inhaled 16.6 mg/kg/day
[10] = male rats, single inhaled dose 2.0 mg/kg (Day 1)
[11] = male rats, single inhaled dose 7.1 mg/kg (Day 1)
[12] = male rats, single inhaled dose 16.6 mg/kg (Day 1)

From the text: Each dose was inhaled over a 2‐hour period once daily for 14 days.
Lower limit of quantification of the assay was 10 pg/mL for clinical samples and 100 pg/mL for rat and dog plasma samples.

Cc1cc(N2CCN(c3ccc(C(=O)Nc4ccc(F)cc4)cc3)CC2)ccc1OC[C@@H]1CO[C@@](Cn2cncn2)(c2ccc(F)cc2F)C1 [PC945]
Ro (accumulation ratio) (female rats, 2.0 mg/kg/day): 1.84
Ro (accumulation ratio) (female rats, 16.6 mg/kg/day): 2.53
AUC0‐24h [1]: 336 ng·h/mL
C max [1]: 19.2 ng/mL
AUC0‐24h [2]: 749 ng·h/mL
C max [2]: 50.4 ng/mL
AUC0‐24h [3]: 1850 ng·h/mL
C max [3]: 92.3 ng/mL
AUC0‐24h [4]: 183 ng·h/mL
C max [4]: 10.5 ng/mL
AUC0‐24h [5]: 416 ng·h/mL
C max [5]: 24.8 ng/mL
AUC0‐24h [6]: 731 ng·h/mL
C max [6]: 41.3 ng/mL
Ro (accumulation ratio) (male rats, 2.0 mg/kg/day): 1.96
AUC0‐24h [7]: 202 ng·h/mL
C max [7]: 12.3 ng/mL
AUC0‐24h [8]: 424 ng·h/mL
C max [8]: 23.7 ng/mL
AUC0‐24h [9]: 1140 ng·h/mL
C max [9]: 76.9 ng/mL
AUC0‐24h [10]: 103 ng·h/mL
C max [10]: 7.3 ng/mL
AUC0‐24h [11]: 217 ng·h/mL
C max [11]: 15.8 ng/mL
AUC0‐24h [12]: 426 ng·h/mL
C max [12]: 26.0 ng/mL
Margin over the clinical AUC following a 5 mg dose (rat, highest dose tested): 12 fold
Time of C max after a single dose (rats, after the 2-hour inhalation): 4 h
Systemic toxicity (rats, highest dose tested): No systemic toxicity
Time of C max after the start of dosing (rats, single 2-hour inhaled dose (Day 1)): 6 h
